Patent US4761414A, “Substituted 1H-pyrimido[1,2-a-]-pyrido[3,4-e]pyrazine 6 oxides” (G. D. Searle & Co., priority 1986, dated 1988)
Values after ≈ are worked out from the molar mass of the structure shown. Like-named read-outs stand apart in the source and are kept apart here.

Tests used:
B. fragilis NCTC 9343 = experiment: MIC/MBC against Bacteroides fragilis strain B; assay type: cell-based; settings: for MBC: NCTC9343, 99.9% reduction in viable count; for MIC: NCTC9343, 48 h, 48 hours, 37° C., anaerobic
Experimental: (§1) The screening panel utilized in this Example consisted of 5 strains of Bacteroides fragilis. All assays were carried out in 96-well microtitre plates. If an isolate was obtained from either a culture collection or clinical source, the isolate was immediately inoculated into Wilkens-Chalgren broth (Oxoid) and incubated at 37° C. in an anaerobic chamber in an atmosphere of 85% nitrogen, 10% carbon dioxide, and 5% hydrogen for 48 hours. At the end of this time, the viable count was about 10^12 organisms/ml broth. A 1 ml aliquot of each culture was placed in an ampoule and quick frozen in acetone-dry ice mixture and stored in liquid nitrogen. When an inoculum was utilized in an assay, one of the ampoules was thawed and diluted with fresh broth to yield a suspension having a count of 5×10^5 organisms/ml. A 100 μl aliquot of this suspension was inoculated into each well of the microtitre plate. A 2 mg sample of the test compound was dissolved in 0.2 ml of a suitable solvent such as dimethylsulfoxide, polyethylene glycol 200 or methanol. […] After addition of the test solution the final inoculum level was 10^5 cells/ml. The plates were incubated for 48 hours at 37° C. in the anaerobic chamber. The Minimum Inhibitory Concentration (MIC) was read visually. The MIC is defined as the lowest concentration at which there is no detectable growth. The Minimum Bactericidal Concentration (MBC) was determined by taking 50 μl aliquot from each well and placing it in fresh medium. […] The strains of Bacteroides fragilis utilized in the above procedure are identified by letter in accordance with the following legend: |B B. fragilis NCTC 9343

B. fragilis 23745 = settings: Bacteroides fragilis, 23745, in Mus musculus, po, 48 h, log CFU/ml liver homogenate, test compound
B. fragilis NCTC 10581 = experiment: MIC/MBC against Bacteroides fragilis strain A (96-well microtitre plates, anaerobic chamber); assay type: cell-based; settings: Bacteroides fragilis; for MBC: NCTC10581, 99.9% reduction in viable count; for MIC: NCTC10581, 48 h, 48 hours, 37° C., anaerobic
Experimental: as §1, with “|A” for “|B”, “10581” for “9343”

[1] = tested on: Campylobacter fetus ss. jejuni ATCC 29428; experiment: MIC vs panel of anaerobes; assay type: cell-based; settings: ATCC29428, procedures of Example 40
[2] = tested on: Propionebacterium acnes NCTC 737; experiment: MIC vs panel of anaerobes; assay type: cell-based; settings: procedures of Example 40
P. anaerobius = experiment: MIC vs panel of anaerobes; assay type: cell-based; settings: Peptostreptococcus anaerobius, procedures of Example 40
[3] = tested on: B. melanogenicus ATCC 15032; experiment: MIC vs panel of anaerobes; assay type: cell-based; settings: procedures of Example 40
Peptococcous magnus = experiment: MIC vs panel of anaerobes; assay type: cell-based; settings: procedures of Example 40
Peptostreptococcus = experiment: MIC vs panel of anaerobes; assay type: cell-based; settings: procedures of Example 40
[4] = tested on: Bacteroides melanogenicus NCTC 9336; experiment: MIC vs panel of anaerobes; assay type: cell-based; settings: NCTC9336, procedures of Example 40
[5] = read-out: DOSE GIVING 1 LOG REDUCTION (molar), p.o., after infection and twice daily for 2 days
[6] = read-out: DOSE GIVING 1 LOG REDUCTION, p.o., after infection and twice daily for 2 days

`CCCC1(C)CN=C2C(c3ccccc3)=[N+]([O-])c3cnccc3N2C1` (stereo not drawn) [Example 27, 2,3-Dihydro-2-methyl-5-phenyl-2-propyl-1H-pyrimido[1,2-a]pyrido[3,4-e]pyrazine 6-oxide] was tested, and the MBC (B. fragilis NCTC 9343) was under 0.8 µg/mL, the MIC (B. fragilis NCTC 9343) was under 0.8 µg/mL and the ED (1 log reduction) (B. fragilis 23745; [5]) was 7.4 µmol/kg. For the same compound, the ED (1 log reduction) (B. fragilis 23745; [6]) was 2.5 mg/kg, the MBC (B. fragilis NCTC 10581) was 1.5 µg/mL (≈ 4.49 µM) and the MIC (B. fragilis NCTC 10581) was 1.5 µg/mL (≈ 4.49 µM).

With `CCC1(C)CN=C2C(c3ccccc3)=[N+]([O-])c3cnccc3N2C1` (stereo not drawn) [Example 23, 2,3-Dihydro-2-ethyl-2-methyl-5-phenyl-1H-pyrimido[1,2-a]pyrido[3,4-e]pyrazine 6-oxide] the MIC [1] was 100 µg/mL (≈ 312 µM), the MBC (B. fragilis NCTC 9343) was under 0.8 µg/mL and the MIC (B. fragilis NCTC 9343) was under 0.8 µg/mL. For the same compound, the MIC [2] was over 100 µg/mL, the MIC (P. anaerobius) was 100 µg/mL (≈ 312 µM) and the ED (1 log reduction) (B. fragilis 23745; [5]) was 6 µmol/kg. It also gave an ED (1 log reduction) (B. fragilis 23745; [6]) of 1.9 mg/kg, an MBC (B. fragilis NCTC 10581) of 1.5 µg/mL (≈ 4.68 µM) and an MIC (B. fragilis NCTC 10581) of 1.5 µg/mL (≈ 4.68 µM). The MIC [3] was over 100 µg/mL.

Compound `CC1CN=C2C(c3ccccc3)=[N+]([O-])c3cnccc3N2C1` (stereo not drawn) [Example 34, 2,3-Dihydro-2-methyl-5-phenyl-1H-pyrimido[1,2-a]pyrido[3,4-e]pyrazine 6-oxide] has an MBC (B. fragilis NCTC 9343) of under 0.8 µg/mL, an MIC (B. fragilis NCTC 9343) of under 0.8 µg/mL and an ED (1 log reduction) (B. fragilis 23745; [5]) of 9.3 µmol/kg. For the same compound, the ED (1 log reduction) (B. fragilis 23745; [6]) was 2.7 mg/kg, the MBC (B. fragilis NCTC 10581) was under 0.8 µg/mL and the MIC (B. fragilis NCTC 10581) was under 0.8 µg/mL.

Compound `[O-][N+]1=C(c2ccccc2)C2=NCC3(CCCCC3)CN2c2ccncc21` [Example 30, Spiro[cyclohexane-1,2'-[2,3]-dihydro-[5]-phenyl-[1H]pyrimido[1,2-a]pyrido[3,4-e]pyrazine [6]-oxide]] has an MIC [1] of 100 µg/mL (≈ 289 µM), an MBC (B. fragilis NCTC 9343) of 1.5 µg/mL (≈ 4.33 µM) and an MIC (B. fragilis NCTC 9343) of under 0.8 µg/mL. The MIC [2] was over 100 µg/mL, the MIC (P. anaerobius) was 100 µg/mL (≈ 289 µM) and the MBC (B. fragilis NCTC 10581) was under 0.8 µg/mL. The MIC (B. fragilis NCTC 10581) was under 0.8 µg/mL and the MIC [3] was over 100 µg/mL.

`CCC1(CC)CN=C2C(c3ccccc3)=[N+]([O-])c3cnccc3N2C1` [Example 25, 2,3-Dihydro-2,2-diethyl-5-phenyl-1H-pyrimido[1,2-a]pyrido[3,4-e]pyrazine 6-oxide] gave an MIC [1] of 100 µg/mL (≈ 299 µM), an MIC (Peptococcous magnus) of 100 µg/mL (≈ 299 µM) and an MBC (B. fragilis NCTC 9343) of 1.5 µg/mL (≈ 4.49 µM). For the same compound, the MIC (B. fragilis NCTC 9343) was 1.5 µg/mL (≈ 4.49 µM), the MIC [2] was over 100 µg/mL and the MIC (P. anaerobius) was 100 µg/mL (≈ 299 µM). For the same compound, the ED (1 log reduction) (B. fragilis 23745; [5]) was 5.75 µmol/kg, the ED (1 log reduction) (B. fragilis 23745; [6]) was 1.9 mg/kg and the MBC (B. fragilis NCTC 10581) was 3.1 µg/mL (≈ 9.27 µM). For the same compound, the MIC (B. fragilis NCTC 10581) was 1.5 µg/mL (≈ 4.49 µM) and the MIC [3] was over 100 µg/mL.

With `COc1ccc(C2=[N+]([O-])c3cnccc3N3CC(C)(C)CN=C23)cc1OC` [Example 21] the MBC (B. fragilis NCTC 9343) was 1.5 µg/mL (≈ 4.09 µM), the MIC (B. fragilis NCTC 9343) was 1.5 µg/mL (≈ 4.09 µM) and the ED (1 log reduction) (B. fragilis 23745; [5]) was 6.8 µmol/kg. It also gave an ED (1 log reduction) (B. fragilis 23745; [6]) of 2.5 mg/kg, an MBC (B. fragilis NCTC 10581) of under 0.8 µg/mL and an MIC (B. fragilis NCTC 10581) of under 0.8 µg/mL.

For `CCCC1(C)CN=C2C(c3ccccc3)=[N+]([O-])c3cccnc3N2C1` (stereo not drawn) [Example 28, 2,3-Dihydro-2-methyl-5-phenyl-2-propyl-1H-pyrimido[1,2-a]pyrido[3,2-e]pyrazine 6-oxide], the MBC (B. fragilis NCTC 9343) was under 0.8 µg/mL, the MIC (B. fragilis NCTC 9343) was under 0.8 µg/mL and the ED (1 log reduction) (B. fragilis 23745; [5]) was 7.4 µmol/kg. The ED (1 log reduction) (B. fragilis 23745; [6]) was 2.5 mg/kg, the MBC (B. fragilis NCTC 10581) was under 0.8 µg/mL and the MIC (B. fragilis NCTC 10581) was under 0.8 µg/mL.

For `CC1(C)CN=C2C(c3ccc(Cl)cc3)=[N+]([O-])c3cnccc3N2C1` [Example 17, 2,3-Dihydro-5-(4-chlorophenyl)-2,2-dimethyl-1H-pyrimido[1,2-a]pyrido[3,4-e]pyrazine 6-oxide], the MIC [1] was 100 µg/mL (≈ 293 µM), the MBC (B. fragilis NCTC 9343) was 1.5 µg/mL (≈ 4.4 µM) and the MIC (B. fragilis NCTC 9343) was 1.5 µg/mL (≈ 4.4 µM). The MIC (Peptostreptococcus) was over 100 µg/mL, the MIC [2] was over 100 µg/mL and the ED (1 log reduction) (B. fragilis 23745; [5]) was 9.3 µmol/kg. The ED (1 log reduction) (B. fragilis 23745; [6]) was 3.2 mg/kg, the MBC (B. fragilis NCTC 10581) was under 0.8 µg/mL and the MIC (B. fragilis NCTC 10581) was under 0.8 µg/mL. The MIC [4] was over 100 µg/mL.
